Data as given in patent US5652262A, “Hydroxamic acid derivatives as metalloproteinase inhibitors” (British Biotech Pharmaceutical, Ltd., priority 1993, dated 1997).

Assays:
collagenase = biological target: T1, collagenase (Homo sapiens, UniProt P03956); assay: Inhibition of collagenase (procedure of Cawston and Barrett, acetylated 14C collagen); type: biochemical; conditions: 37°, 16 hours, pH 7.5
T1 sequence (P03956 100-469): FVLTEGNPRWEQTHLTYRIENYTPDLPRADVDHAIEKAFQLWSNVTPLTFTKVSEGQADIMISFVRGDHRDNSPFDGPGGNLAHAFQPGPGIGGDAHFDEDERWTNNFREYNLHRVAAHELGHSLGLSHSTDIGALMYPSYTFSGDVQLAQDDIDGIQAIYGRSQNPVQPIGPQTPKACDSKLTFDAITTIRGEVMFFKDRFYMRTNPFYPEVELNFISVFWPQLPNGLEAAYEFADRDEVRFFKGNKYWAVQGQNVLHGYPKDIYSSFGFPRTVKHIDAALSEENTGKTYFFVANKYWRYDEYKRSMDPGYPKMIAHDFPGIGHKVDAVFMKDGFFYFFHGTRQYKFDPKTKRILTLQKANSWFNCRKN
Procedure: The potency of compounds of the invention as inhibitors of collagenase was determined by the procedure of Cawston and Barrett, (Anal. Biochem., 99, 340-345, 1979), hereby incorporated by reference, whereby a 1 mM solution of the compound being tested, or a dilution thereof, was incubated at 37° for 16 hours with collagen and collagenase (buffered with 25 mM Hepes, pH 7.5 containing 5 mM CaCl2, 0.05% Brij 35 and 0.02% NaN3). The collagen was acetylated ^14 C collagen prepared by the method of Cawston and Murphy, (Methods in Enzymology, 80, 711, 1981), hereby incorporated by reference. The samples were centrifuged to sediment undigested collagen, and an aliquot of the radioactive supernatant removed for assay on a scintillation counter as a measure of hydrolysis.

[1] = Systemic blood concentration of inhibitor over 24 hours after oral dosing in rats, by collagenase inhibitory activity of blood extracts; type: in vivo, rat; conditions: 10 mg/kg in PBS/0.1% Tween 80 by gavage, male rats, 0.5-24 hours, drug plus any active metabolites, collagenase assay
Procedure: The biological efficacy of a compound of the invention in chronic disease states is a function of the systemic blood concentration maintained over time, and its intrinsic potency. These factors can be quantified as IC50.hrs (24 hrs), which parameter is defined as the total number of IC50 s in the blood over the 24 hours post dosing, the IC50 being defined as the concentration of the compound that reduces collagenase activity to 50% of its normal value.:
Test compounds were administered at 10 mg/kg in PBS/0.1% Tween 80 by gavage to 6 male rats (300 g) per treatment group. Blood samples were removed by tail venepuncture at 0.5, 1.0, 2.0, 6.0 and 24 hours post administration. 0.5 ml of blood was placed into 4.5 ml tubes containing 0.1 ml acid citrate dextrose (ACD) as anti-coagulant. For extraction, 3 ml methanol was added and the precipitated blood pelletted by centrifugation (30 min at 3000 rpm). A 2 ml aliquot of supernatant was removed and dried by lyophilisation. The extract was redissolved in 200 μl DMSO and a 10 μl aliquot assayed for collagenase inhibitory activity. The inhibitory activity in the extracts was determined using the collagenase assay described in Biological Example A above, and the concentration of inhibitor (that is drug plus any active metabolites) obtained by comparison with standard curves. […]

[2] = tested on: rat adjuvant arthritis model; assay: Rat adjuvant arthritis model, hindpaw oedema volume; type: in vivo; conditions: male Lewis rats, two doses of 10 mg/kg orally each day, day 13 to day 17
Procedure: The compound of Example 1 was tested in a rat adjuvant arthritis model.
Adjuvant arthritis was produced in male Lewis rats (Charles River) by a single intradermal injection of 0.75 mg of M. butyricum in light parafin oil (Freund's complete adjuvant) into the base of the tail. The "secondary" lesion occurs after a delay of 10 days, and is characterised by inflammation of the hindpaws. Hindpaw oedema volumes were measured plethysmographically by water displacement. Animals in the treated groups received two doses of 10 mg/kg of the test compound in PBS/0.1% Tween orally, each day, from day 13 to day 17. Results are reported as paw volume change from the volume measured on day 13.

stromelysin = stromelysin (Homo sapiens, UniProt P08254); assay: Inhibition of stromelysin (procedure of Cawston et al, acetylated 14C casein); type: biochemical; conditions: 37°, 16 hours, pH 7.5
Procedure: The potency of compounds of the invention as inhibitors of stromelysin was determined by the procedure of Cawston et al, (Biochem. J., 195, 159-165, 1981), hereby incorporated by reference, whereby a 1 mM solution of the compound being tested, or a dilution thereof, was incubated at 37° for 16 hours with stromelysin and ^14 C acetylate casein (buffered with 25 mM Hepes, pH 7.5 containing 5 mM CaCl2, 0.05% Brij 35 and 0.02% NaN3). The casein was acetylated ^14 C casein prepared by the method of Cawston et al (ibid).

Chain of stromelysin (P08254 100-477): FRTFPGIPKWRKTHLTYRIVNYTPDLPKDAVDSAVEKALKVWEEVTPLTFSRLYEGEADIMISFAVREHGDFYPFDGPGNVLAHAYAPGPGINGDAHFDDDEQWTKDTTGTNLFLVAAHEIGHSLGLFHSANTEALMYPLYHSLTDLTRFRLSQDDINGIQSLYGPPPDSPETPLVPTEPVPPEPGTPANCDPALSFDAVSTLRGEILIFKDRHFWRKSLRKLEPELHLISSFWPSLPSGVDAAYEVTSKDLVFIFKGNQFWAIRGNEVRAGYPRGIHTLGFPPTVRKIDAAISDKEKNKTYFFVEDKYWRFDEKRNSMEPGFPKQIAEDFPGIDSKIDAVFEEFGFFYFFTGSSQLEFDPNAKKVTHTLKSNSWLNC

Row | SMILES | IC50 (collagenase) [nM] | AUC (IC50.hrs (24hrs)) [1] [IC50.hrs] | paw volume change, Day 17 (% relative to day 13) ([2]; Day 17) [%] | paw volume change, Day 20 (% relative to day 13) ([2]; Day 20) [%] | IC50 (stromelysin) [nM]
1 | C=CC[C@H](C(=O)NO)[C@@H](CC(C)C)C(=O)N[C@@H](Cc1ccccc1)C(=O)NC [Example 1, 3R-(2-Phenyl-1S-methylcarbamoyl-ethylcarbamoyl)-5-methyl-2S-2-propenyl-hexanohydroxamic acid] | 10 | 233 | 52 | 65 | 
2 | C=CC[C@H](C(=O)NO)[C@@H](CC(C)C)C(=O)N[C@H](C(=O)NC)C(C)(C)C [Example 5, 3R-(2,2-Dimethyl-1S-methylcarbamoyl-propylcarbamoyl)-5-methyl-2S-2-propenyl-hexanohydroxamic acid] | 3 to 4 | 970 |  |  | 80
3 | C=CC[C@H](C(=O)NO)[C@@H](CC(C)C)C(=O)N[C@@H](Cc1ccccc1)C(=O)NCc1ccccc1 [Example 7, 3R-(2-Phenyl-1S-phenylmethylcarbamoyl-ethylcarbamoyl)-5-methyl-2S-2-propenyl-hexanohydroxamic acid] | 10 |  |  |  | 5
